target: truncated form of human NaV 1.8 with full channel activity (Homo sapiens, UniProt Q9Y5Y9); test: E-VIPR Assay Method A for detecting and measuring Nav inhibition (HEK cells, membrane potential FRET dyes, electrical stimulation); format: cell-based; details: HEK cells expressing human NaV 1.8, HS (human serum) in compound loading buffer, 11 point dose response, top dose 3 μM, Table 20, read-out: Nav 1.8 MedChem Optical Assay EVIPR Assay Method A HS IC50
Procedure, shortened: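 Read-out: FRET membrane-potential dye ratio (460/580 nm) before and during E-VIPR field stimulation at 10 Hz for 10 s, expressed as % activity between DMSO and positive controls. Cells: HEK with truncated human NaV1.8; compound preincubated 30 min at room temp, final DMSO 0.625%.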

Chain of truncated form of human NaV 1.8 with full channel activity (Q9Y5Y9 126-1722 limits assumed): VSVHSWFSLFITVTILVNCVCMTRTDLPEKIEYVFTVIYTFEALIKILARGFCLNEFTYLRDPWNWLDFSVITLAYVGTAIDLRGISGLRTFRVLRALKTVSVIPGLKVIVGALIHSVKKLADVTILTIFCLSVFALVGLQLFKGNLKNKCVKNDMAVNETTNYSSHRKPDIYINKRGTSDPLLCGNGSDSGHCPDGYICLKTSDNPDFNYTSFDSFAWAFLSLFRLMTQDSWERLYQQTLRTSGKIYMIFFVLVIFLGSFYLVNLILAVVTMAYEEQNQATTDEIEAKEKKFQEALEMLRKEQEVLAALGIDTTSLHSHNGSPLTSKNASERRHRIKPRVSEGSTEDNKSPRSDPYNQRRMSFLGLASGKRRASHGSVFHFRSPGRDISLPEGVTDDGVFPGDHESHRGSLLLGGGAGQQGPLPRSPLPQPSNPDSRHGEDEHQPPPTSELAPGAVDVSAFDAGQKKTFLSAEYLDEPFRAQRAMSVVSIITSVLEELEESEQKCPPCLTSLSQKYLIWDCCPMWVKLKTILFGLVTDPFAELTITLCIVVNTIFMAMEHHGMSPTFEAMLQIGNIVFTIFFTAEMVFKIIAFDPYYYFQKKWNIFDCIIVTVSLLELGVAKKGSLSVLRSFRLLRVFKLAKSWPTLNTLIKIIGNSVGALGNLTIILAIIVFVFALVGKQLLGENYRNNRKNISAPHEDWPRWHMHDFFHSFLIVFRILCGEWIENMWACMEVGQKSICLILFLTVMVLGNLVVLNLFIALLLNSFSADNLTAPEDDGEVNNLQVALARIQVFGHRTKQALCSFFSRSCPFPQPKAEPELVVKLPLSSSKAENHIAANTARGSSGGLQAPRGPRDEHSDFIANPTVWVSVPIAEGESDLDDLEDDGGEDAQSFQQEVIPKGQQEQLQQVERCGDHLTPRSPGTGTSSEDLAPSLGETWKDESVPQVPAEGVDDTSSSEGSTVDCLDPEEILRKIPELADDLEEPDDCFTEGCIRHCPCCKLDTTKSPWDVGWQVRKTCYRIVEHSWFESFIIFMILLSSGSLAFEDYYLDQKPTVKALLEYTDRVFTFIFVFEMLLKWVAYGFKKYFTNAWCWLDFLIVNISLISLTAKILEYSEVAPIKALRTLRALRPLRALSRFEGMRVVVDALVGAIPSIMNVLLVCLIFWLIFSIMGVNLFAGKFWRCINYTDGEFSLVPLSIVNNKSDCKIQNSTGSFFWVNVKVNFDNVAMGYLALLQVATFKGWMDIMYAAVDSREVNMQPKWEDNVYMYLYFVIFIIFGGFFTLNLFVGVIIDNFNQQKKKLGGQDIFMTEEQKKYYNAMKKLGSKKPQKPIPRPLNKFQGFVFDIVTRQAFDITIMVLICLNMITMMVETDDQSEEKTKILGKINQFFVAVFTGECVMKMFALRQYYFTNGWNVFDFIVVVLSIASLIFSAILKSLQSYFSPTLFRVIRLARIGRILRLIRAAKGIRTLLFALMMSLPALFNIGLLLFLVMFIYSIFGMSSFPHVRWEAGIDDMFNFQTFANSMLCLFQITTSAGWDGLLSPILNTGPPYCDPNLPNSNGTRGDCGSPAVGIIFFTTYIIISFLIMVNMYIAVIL

| IC50 [nM] | Structure (SMILES) |
| --- | --- |
| 8 | [2H]C([2H])([2H])Oc1cc(OC(F)(F)F)ccc1Oc1cc(C(F)(F)F)cc(F)c1C(=O)Nc1ccnc(C(N)=O)c1 [Compound 17, 4-[[2-fluoro-6-[2-(trideuteriomethoxy)-4-(trifluoromethoxy)phenoxy]-4-(trifluoromethyl)benzoyl]amino]pyridine-2-carboxamide] |
| 10 | NC(=O)c1cc(NC(=O)c2c(Oc3ccc(OC(F)(F)F)cc3F)ccc(C(F)(F)F)c2F)ccc1F [Compound 21, N-(3-carbamoyl-4-fluoro-phenyl)-2-fluoro-6-[2-fluoro-4-(trifluoromethoxy)phenoxy]-3-(trifluoromethyl)benzamide] |
| 18 | [2H]C([2H])([2H])Oc1cc(OC(F)(F)F)ccc1Oc1ccc(C(F)(F)F)c(F)c1C(=O)Nc1ccc(C(N)=O)nc1 [Compound 24, 5-[[2-fluoro-6-[2-(trideuteriomethoxy)-4-(trifluoromethoxy)phenoxy]-3-(trifluoromethyl)benzoyl]amino]pyridine-2-carboxamide] |
| 3 | NC(=O)c1cc(NC(=O)c2c(Oc3ccc(OC(F)(F)F)cc3Cl)ccc(C(F)(F)F)c2F)ccc1F [Compound 9, N-(3-carbamoyl-4-fluoro-phenyl)-6-[2-chloro-4-(trifluoromethoxy)phenoxy]-2-fluoro-3-(trifluoromethyl)benzamide] |
| 11 | COc1cc(OC(F)(F)F)ccc1Oc1cc(C2CC2)cc(F)c1C(=O)Nc1ccnc(C(N)=O)c1 [Compound 22, 4-[[4-cyclopropyl-2-fluoro-6-[2-methoxy-4-(trifluoromethoxy)phenoxy]benzoyl]amino]pyridine-2-carboxamide] |

same assay, conditions: HEK cells expressing human NaV 1.8, HS (human serum) in compound loading buffer, 11 point dose response, top dose 3 μM, Table 20A, read-out: Nav 1.8 MedChem Optical Assay EVIPR Assay Method A HS IC50

| IC50 [nM] | Structure (SMILES) |
| --- | --- |
| 10 | COc1cc(OC(F)(F)F)ccc1Oc1cnc(C(F)(F)F)c(F)c1C(=O)Nc1cc(C(N)=O)ncc1C [Compound 143, N-(2-Carbamoyl-5-methyl-4-pyridyl)-3-fluoro-5-[2-methoxy-4-(trifluoromethoxy)phenoxy]-2-(trifluoromethyl)pyridine-4-carboxamide] |
| 46 | COc1cc(OC(F)(F)F)ccc1Oc1cnc(C(F)(F)F)c(OC)c1C(=O)Nc1ccc(C(N)=O)nc1 [Compound 203, N-(6-Carbamoyl-3-pyridyl)-3-methoxy-5-[2-methoxy-4-(trifluoromethoxy)phenoxy]-2-(trifluoromethyl)pyridine-4-carboxamide] |
| 250 | COc1ncccc1Oc1cc(Cl)c(Cl)cc1C(=O)Nc1ccc(F)c(C(N)=O)c1 [Compound 35, N-(3-carbamoyl-4-fluoro-phenyl)-4,5-dichloro-2-[(2-methoxy-3-pyridyl)oxy]benzamide] |
| 54 | [2H]C([2H])([2H])Oc1cc(OC(F)(F)F)ccc1Oc1ccc(C(F)(F)F)c(F)c1C(=O)Nc1ccc(C(N)=O)cn1 [Compound 212, 6-[[2-Fluoro-6-[2-(trideuteriomethoxy)-4-(trifluoromethoxy)phenoxy]-3-(trifluoromethyl)benzoyl]amino]pyridine-3-carboxamide] |
| 8 | COc1cc(Oc2ccc(OC(F)(F)F)cc2)c(C(=O)Nc2ccc(F)c(C(N)=O)c2)c(F)c1C(F)(F)F [Compound 216, N-(3-Carbamoyl-4-fluoro-phenyl)-2-fluoro-4-methoxy-6-[4-(trifluoromethoxy)phenoxy]-3-(trifluoromethyl)benzamide] |
| 890 | NC(=O)c1cc(NC(=O)c2c(Oc3ccc(F)cc3)cccc2C(F)(F)F)ccc1F [Compound 37, N-(3-Carbamoyl-4-fluoro-phenyl)-2-(4-fluorophenoxy)-6-(trifluoromethyl)benzamide] |
| 150 | [2H]C([2H])([2H])Oc1cc(OC(F)(F)F)ccc1Oc1ccc(OC(F)F)c(F)c1C(=O)Nc1ccc(C(N)=O)nc1 [Compound 198, 5-[[3-(Difluoromethoxy)-2-fluoro-6-[2-(trideuteriomethoxy)-4-(trifluoromethoxy)phenoxy]benzoyl]amino]pyridine-2-carboxamide] |
| 34 | COc1cc(OC(F)(F)F)ccc1Oc1cc(C(C)(C)F)ncc1C(=O)Nc1ccc(F)c(C(N)=O)c1 [Compound 103, N-(3-Carbamoyl-4-fluoro-phenyl)-6-(1-fluoro-1-methyl-ethyl)-4-[2-methoxy-4-(trifluoromethoxy)phenoxy]pyridine-3-carboxamide] |
| 108 | COc1cc(OC(F)(F)F)ccc1Oc1cc(C(F)(F)F)ccc1C(=O)Nc1cccc(C(N)=O)c1 [Compound 28, N-(3-Carbamoylphenyl)-2-[2-methoxy-4-(trifluoromethoxy)phenoxy]-4-(trifluoromethyl)benzamide] |
| 97 | COc1cc(OC(F)(F)F)ccc1Oc1cc(C2CC2)ncc1C(=O)Nc1ccnc(C(N)=O)c1 [Compound 78] |
| 200 | COc1cc(OC(F)(F)F)ccc1Oc1cc([C@H]2C[C@@H]2C)ncc1C(=O)Nc1ccnc(C(N)=O)c1 (single isomer, unassigned) [Compound 111] |
| 350 | NC(=O)c1cc(NC(=O)c2cc(F)c(C(F)(F)F)cc2Oc2ccc(OC(F)(F)F)cc2)ccn1 [Compound 76, 4-[[5-Fluoro-2-[4-(trifluoromethoxy)phenoxy]-4-(trifluoromethyl)benzoyl]amino]pyridine-2-carboxamide] |
| 38 | [2H]C([2H])([2H])Oc1cc(OC(F)(F)F)ccc1Oc1cc(C(F)(F)F)cc(C(F)(F)F)c1C(=O)Nc1ccnc(C(N)=O)c1 [Compound 175, 4-[[2-[2-(Trideuteriomethoxy)-4-(trifluoromethoxy)phenoxy]-4,6-bis(trifluoromethyl)benzoyl]amino]pyridine-2-carboxamide] |
| 36 | Cc1cnc(C(N)=O)cc1NC(=O)c1c(Oc2ccc(OC(F)(F)F)c(F)c2)ccc(Cl)c1F [Compound 245, 4-[[3-chloro-2-fluoro-6-[3-fluoro-4-(trifluoromethoxy)phenoxy]benzoyl]amino]-5-methyl-pyridine-2-carboxamide] |
| 140 | COc1c(C(F)(F)F)ccc(Oc2ccc(OC(F)(F)F)cc2)c1C(=O)Nc1ccc(C(N)=O)c(F)c1 [Compound 132, N-(4-Carbamoyl-3-fluoro-phenyl)-2-methoxy-6-[4-(trifluoromethoxy)phenoxy]-3-(trifluoromethyl)benzamide] |
| 18 | COc1cc(OC(F)(F)F)ccc1Oc1ccc(F)c(F)c1C(=O)Nc1ccc(F)c(C(N)=O)c1 [Compound 55, N-(3-Carbamoyl-4-fluoro-phenyl)-2,3-difluoro-6-[2-methoxy-4-(trifluoromethoxy)phenoxy]benzamide] |
| 83 | COc1cc(OC(F)(F)F)ccc1Oc1cc(C(F)(F)F)ncc1C(=O)Nc1ccnc(C(N)=O)c1 [Compound 34, N-(2-Carbamoyl-4-pyridyl)-4-[2-methoxy-4-(trifluoromethoxy)phenoxy]-6-(trifluoromethyl)pyridine-3-carboxamide] |
| 92 | COc1cc(OC(F)(F)F)ccc1Oc1ccc(C(F)(F)F)c(F)c1C(=O)Nc1ccc(C(N)=O)cc1F [Compound 82, N-(4-carbamoyl-2-fluoro-phenyl)-2-fluoro-6-[2-methoxy-4-(trifluoromethoxy)phenoxy]-3-(trifluoromethyl)benzamide] |
| 660 | NC(=O)c1cc(NC(=O)c2c(Oc3ccc(OC(F)(F)F)cc3O)ccc(C(F)(F)F)c2F)ccn1 [Compound 214, 4-[[2-Fluoro-6-[2-hydroxy-4-(trifluoromethoxy)phenoxy]-3-(trifluoromethyl)benzoyl]amino]pyridine-2-carboxamide] |
| 21 | Cc1cnc(C(N)=O)cc1NC(=O)c1c(Oc2ccc(OC(F)(F)F)c(F)c2)ccc(C(F)(F)F)c1F [Compound 246, 4-[[2-fluoro-6-[3-fluoro-4-(trifluoromethoxy)phenoxy]-3-(trifluoromethyl)benzoyl]amino]-5-methyl-pyridine-2-carboxamide] |
| 160 | [2H]C([2H])([2H])Oc1cc(OC(F)(F)F)ccc1Oc1ccc(C(F)(F)F)c(F)c1C(=O)Nc1ccc(C(N)=O)nc1C [Compound 188, 5-[[2-Fluoro-6-[2-(trideuteriomethoxy)-4-(trifluoromethoxy)phenoxy]-3-(trifluoromethyl)benzoyl]amino]-6-methyl-pyridine-2-carboxamide] |
| 145 | COc1cc(OC(F)(F)F)ccc1Oc1cc(C2CC2)c(F)cc1C(=O)Nc1ccnc(C(N)=O)c1 [Compound 116, 4-[[4-Cyclopropyl-5-fluoro-2-[2-methoxy-4-(trifluoromethoxy)phenoxy]benzoyl]amino]pyridine-2-carboxamide] |
| 5 | COc1cc(OC(F)(F)F)ccc1Oc1ccc(C(F)(F)F)c(F)c1C(=O)Nc1cc(C(N)=O)ncc1C [Compound 120, 4-[[2-Fluoro-6-[2-methoxy-4-(trifluoromethoxy)phenoxy]-3-(trifluoromethyl)benzoyl]amino]-5-methyl-pyridine-2-carboxamide] |
| 5 | [2H]C([2H])([2H])Oc1c(Oc2ccc(C(F)F)c(F)c2C(=O)Nc2ccnc(C(N)=O)c2)ccc(OC(F)(F)F)c1F [Compound 235, 4-[[3-(Difluoromethyl)-2-fluoro-6-[3-fluoro-2-(trideuteriomethoxy)-4-(trifluoromethoxy)phenoxy]benzoyl]amino]pyridine-2-carboxamide] |
| 420 | NC(=O)c1ccc(NC(=O)c2c(Oc3ccc(OC(F)(F)F)cc3)ccc3c2CCC3(F)F)cn1 [Compound 192, 5-[[1,1-Difluoro-5-[4-(trifluoromethoxy)phenoxy]indane-4-carbonyl]amino]pyridine-2-carboxamide] |
| 38 | COc1cc(OC(F)(F)F)ccc1Oc1ccc(C(F)(F)C(F)(F)F)cc1C(=O)Nc1ccnc(C(N)=O)c1 [Compound 81] |
| 0.9 | COc1c(Oc2ccc(C(F)(F)F)c(F)c2C(=O)Nc2ccc(F)c(C(N)=O)c2)ccc(OC(F)(F)F)c1F [Compound 219, N-(3-Carbamoyl-4-fluoro-phenyl)-2-fluoro-6-[3-fluoro-2-methoxy-4-(trifluoromethoxy)phenoxy]-3-(trifluoromethyl)benzamide] |

From patent publication US12281057B2 (VERTEX PHARMACEUTICALS INCORPORATED, priority 2017, dated 2025)
